Consider 24 molecules from PubChem BioAssay (NCI).

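Briefly, cells in 96-well plates were exposed to five compound concentrations for 48 h, and endpoints were estimated by linear interpolation. TGI: total growth inhibition.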

What all share (experiment): DTP human tumour cell line panel, 48 h
In assay [1] the test system is 786-0 renal.
In assay [2] the test system is HCT-15 colon.
Assay [3] concerns MDA-MB-435.
Assay [4] relates to MOLT-4 leukemia.
Assay [5] deals with OVCAR-3 ovarian.
Assay [6] relates to OVCAR-5 ovarian.
The test system of assay [7] is SK-OV-3 ovarian.
Assay [8] concerns SW-620 colon.
Assay [9] has as its system RXF 393 renal.
Assay [10] deals with SNB-75 CNS.

By TGI is commonly meant the concentration giving total growth inhibition. The low end stands for more potent growth arrest, the high end for less potent growth arrest. Take `COC1=C[C@]2(CCC(=O)O2)[C@@H]2Cc3ccccc3[C@H](O)[C@@H]2C1=O`: the TGI in assay [1] was greater than 100 µM; in assay [2], greater than 100 µM; in [3] it was 31 µM; in assay [4], 38.9 µM; in assay [5], greater than 100 µM; in assay [6], greater than 100 µM. The concentration for total growth inhibition (TGI) in [7] was greater than 100 µM; in assay [8], 88.8 µM.

Regarding `COc1cc(C2c3cc4c(cc3OC(NNC(N)=O)C2C)OCO4)cc(OC)c1OC` (stereo not drawn), the total growth inhibition concentration (TGI) in assay [1] is greater than 100 µM; in assay [4] it was greater than 100 µM; in [6], greater than 100 µM; in assay [9] it was greater than 100 µM; in assay [7], greater than 100 µM; in [10], greater than 87.9 µM. The molecule also yielded a TGI in assay [8] greater than 100 µM.

Consider `CC1(C)OC[C@H](C(=N)OCc2ccccc2)O1`, for which the TGI in assay [2], in assay [4], in assay [5], in assay [6], in assay [9] and in assay [7] was greater than 100 µM throughout. Moreover, the concentration for total growth inhibition (TGI) in assay [10] and in assay [8] was greater than 100 µM throughout.

For the molecule `CC(=O)OCC1OC(N2C(=O)NC(=O)C3C=C4CCCCC4=CC32)CC1OC(C)=O` (stereo not drawn), the TGI in assay [1], in assay [2], in assay [3], in assay [4], in assay [5] and in assay [6] was greater than 100 µM throughout. Also, the TGI in assay [7], in assay [10] and in assay [8] was greater than 100 µM each time.

Consider `CC[C@@]1(O)C[C@H](OC2CC(N(C)C)C(O)C(C)O2)c2c(cc3c(c2O)C(=O)c2c(O)ccc(O)c2C3=O)[C@H]1C(=O)OC` (stereo partly drawn), for which the concentration for total growth inhibition (TGI) in assay [2] turned out to be 0.976 µM; in assay [4] it was 0.192 µM; in [5], 0.924 µM; in assay [6], 0.836 µM; in assay [9], 0.258 µM; in [7] it was 2.37 µM. The figures for the concentration for total growth inhibition (TGI) in assay [10] and in assay [8] were 0.354 µM and 0.662 µM, respectively.

As to `CCOC(=O)c1c(NS(=O)(=O)c2ccc(C)cc2)sc2c1CCCC2`, the total growth inhibition concentration (TGI) was greater than 100 µM in assay [1]; 42.1 µM in assay [2]; greater than 100 µM in assay [4]; 47.5 µM in assay [5]; greater than 100 µM in assay [6]; 66.7 µM in assay [10].

As for `CC1=NN(C(=O)Cc2ccccc2)C(=O)/C1=C\c1ccc([N+](=O)[O-])cc1`, the total growth inhibition concentration (TGI) in [1], in assay [2], in [4], in assay [5], in [6] and in assay [9] was greater than 100 µM in each case. For the same molecule, the concentration for total growth inhibition (TGI) in assay [7] and in assay [8] was greater than 100 µM throughout.

Regarding `CN(C)CCNC(=O)c1cccc2ccc(-c3ccc(Br)cc3)nc12`, the TGI came to 12.5 µM in assay [2]; 1.48 µM in [4]; 12.6 µM in assay [5]; 10.2 µM in assay [6]; 13.1 µM in assay [9]; 10.6 µM in [7]. Besides, the total growth inhibition concentration (TGI) stood at 10.7 µM in [10] and 5.9 µM in assay [8].

As to `CCC12CCCN(Cc3ccccc3)C1c1c(n(C)c3ccccc13)C(CO)C2` (stereo not drawn), the TGI was 79.5 µM in assay [1]; 78.1 µM in assay [2]; 149 µM in assay [4]; 90.7 µM in assay [5]; 75.6 µM in assay [6]; greater than 257 µM in assay [9]. Besides, the total growth inhibition concentration (TGI) in assay [7] was found to be 194 µM; in assay [8], 89.2 µM.

Consider `CCc1cc(C)cc2[n+]1CC=C2`, for which the TGI in assay [1] is greater than 100 µM; in [6], 56.6 µM; in assay [9], greater than 100 µM; in assay [10], 70.6 µM; in assay [8], greater than 100 µM.

`O=c1cc(-c2ccccc2)[nH]c2ncccc12`: the TGI is greater than 100 µM in [1]; greater than 100 µM in assay [4]; greater than 100 µM in assay [5]; greater than 100 µM in assay [6]; 1.89 µM in [7]; greater than 100 µM in [8].

`COC1OCC(O)C(NC(=O)N(C)N=O)C1O` (stereo not drawn): the TGI in [2], in [4], in [5], in assay [6], in assay [9] and in assay [7] was greater than 100 µM throughout. The TGI in assay [10] and in [8] was greater than 100 µM in each case.

On to `C/C=C1/CN2CCC34c5ccccc5N(C)C23C2CC1C4(C(=O)OC)C(OC(C)=O)O2` (stereo not drawn), for which the concentration for total growth inhibition (TGI) in assay [1], in [2], in [3], in assay [4], in [5] and in assay [6] was greater than 100 µM each time. Besides, the TGI in assay [7], in assay [10] and in [8] was greater than 100 µM throughout.

Take `O=C(NC(=S)Nc1ccc([N+](=O)[O-])cc1)c1ccc2c(c1)Sc1ccccc1O2`: the TGI in assay [1], in assay [2], in assay [3], in [4], in assay [5] and in assay [6] was greater than 100 µM each time. In addition, the TGI is greater than 100 µM in assay [7], 29.6 µM in [10] and greater than 100 µM in assay [8].

Turning to `CC#C[C@]1(O)CCC2[C@@H]3CCC4=CC(=O)CCC4=C3[C@@H](c3ccc(N(C)C)cc3)C[C@@]21C` (stereo partly drawn), the TGI in [1] was 37.2 µM; in [2], greater than 100 µM; in [3] it was 34 µM; in [5], 23.5 µM; in assay [6], 79.1 µM; in [7], 72.4 µM. Also, the concentration for total growth inhibition (TGI) in assay [8] is greater than 100 µM.

Consider `O=C(c1ccccc1)N1CCN(C(=S)NC2CCCCC2)C1=S`, for which the concentration for total growth inhibition (TGI) is 52.2 µM in assay [1]; 33.2 µM in assay [2]; 38 µM in assay [3]; 56 µM in assay [4]; 30.7 µM in assay [5]; 52.5 µM in assay [6]. The total growth inhibition concentration (TGI) in assay [7] turned out to be 65.6 µM; in assay [10], 31.6 µM; in assay [8], 55.6 µM.

In the case of `COC(C/C(=C/CO[Si](C(C)C)(C(C)C)C(C)C)C(=O)N(C(=O)OC(C)(C)C)c1ccccc1I)OC`, the total growth inhibition concentration (TGI) in assay [1], in assay [2], in assay [3], in [4], in assay [5] and in assay [6] was greater than 100 µM throughout. Besides, the TGI in assay [7], in assay [10] and in assay [8] was greater than 100 µM each time.

Take `O=C(Cc1nc2ccc(C(=O)c3ccccc3)cc2[nH]c1=O)C(=O)Nc1nc2ccccc2[nH]1`: the TGI in assay [1], in assay [2], in assay [4], in assay [5], in assay [7] and in assay [10] was greater than 100 µM throughout. In [8], this molecule yielded a concentration for total growth inhibition (TGI) greater than 100 µM.

Take `COc1ccc2nc3c([N+](=O)[O-])ccc(NCCN(C)C)c3c(N)c2c1`: the total growth inhibition concentration (TGI) in [1] stood at 3.31 µM; in [2] it was 2.49 µM; in assay [4], 2.46 µM; in [5] it was 3.31 µM; in assay [6], 3.09 µM; in [9] it was 3.36 µM. For the same molecule, the TGI in assay [7] turned out to be 3.13 µM; in assay [10] it was 2.62 µM; in assay [8], 0.562 µM.

Regarding `Cc1ccc(/C=C/C(=O)Oc2ccc(/C=C3\CCC/C(=C\c4ccc(OC(=O)/C=C/c5ccc(C)cc5)cc4)C3=O)cc2)cc1`, the concentration for total growth inhibition (TGI) was 81 µM in assay [1]; greater than 100 µM in assay [2]; greater than 100 µM in assay [3]; greater than 100 µM in assay [4]; greater than 100 µM in [5]; greater than 100 µM in assay [6]. For the same molecule, the TGI in assay [10] is 36.3 µM; in assay [8], greater than 100 µM.

With `Nc1nc(NCCOCP(=O)(O)O)c([N+](=O)[O-])c(=O)[nH]1`, the total growth inhibition concentration (TGI) in [1], in [4], in assay [5], in assay [9], in assay [7] and in assay [10] was greater than 100 µM throughout. In addition, in assay [8], the total growth inhibition concentration (TGI) is greater than 100 µM.

Take `Cc1ccccc1NC(=O)Cc1csc(N/N=C2\NC(=O)/C(=C/c3cccc([N+](=O)[O-])c3)S2)n1`: the TGI was greater than 100 µM in assay [1]; 29.3 µM in [2]; 39.5 µM in assay [3]; greater than 100 µM in [4]; 52.3 µM in assay [5]; 45.8 µM in assay [6]. The TGI was 74.6 µM in assay [7], 34 µM in [10] and greater than 100 µM in [8].

Consider `CN(C)C(=O)Oc1c(Br)cc(Br)cc1C(=O)OCc1ccccc1`, for which the TGI is greater than 81.7 µM in [2]; 44.3 µM in [4]; 48 µM in assay [5]; greater than 100 µM in assay [6]; greater than 75.6 µM in assay [9]; greater than 100 µM in assay [7]. For the same molecule, the figures for the TGI in assay [10] and in [8] were 97 µM and greater than 100 µM, respectively.

Take `Cn1cnc(N2CCCC2)c(C#N)c1=S`: the TGI in assay [1], in [2], in assay [3], in assay [4], in assay [5] and in assay [6] was greater than 100 µM each time. Besides, the TGI in assay [9] and in assay [8] was greater than 100 µM throughout.
